The values below are quoted from earlier work in US9314478B2, “Method of making an anhydrous, fat soluble, chewable drug delivery formulation” (Argenta Manufacturing Limited, priority 2013, dated 2016).

Consider `CC(C(=O)O)c1ccc2c(c1)[nH]c1ccc(Cl)cc12` (stereo not shown) [Carprofen], for which the Aqueous solubility result is “Poor”.

For the compound `Cc1cnc(NC(=O)C2=C(O)c3ccccc3S(=O)(=O)N2C)s1` [Meloxicam], the Aqueous solubility result is recorded as “Poor”.

In the case of `CCCOc1ccc2nc(NC(=O)OC)[nH]c2c1` [Oxibendazole], the Aqueous solubility entry is “Poor”.

Turning to `O=C(C1CCCCC1)N1CC(=O)N2CCc3ccccc3C2C1` (stereo not shown) [Praziquantel], the Aqueous solubility entry is “Soluble”.

As to `CN1CCCN=C1/C=C/c1cccs1` [Pyrantel], the Aqueous solubility result is “Poor”.

Take Milbemycin oxime: the Aqueous solubility entry is listed as “Poor”.

As for Spinosad, the Aqueous solubility entry is “Soluble”.
